Results published in patent publication US20110092529A1, “1,2,4-Triazole Derivatives and Their Use as Oxytocin Antagonists” (Pfizer Inc., priority 2005, published 2011).

Molecular target: T1, oxytocin receptor (CHO-OTR/NFAT-β-Lactamase cells) (Homo sapiens, UniProt P30559)
T1 construct: expressed in transfected cells; host or cells: CHO (CHO-OTR line carrying an NFAT-β-lactamase reporter)
T1 sequence (P30559 1-389): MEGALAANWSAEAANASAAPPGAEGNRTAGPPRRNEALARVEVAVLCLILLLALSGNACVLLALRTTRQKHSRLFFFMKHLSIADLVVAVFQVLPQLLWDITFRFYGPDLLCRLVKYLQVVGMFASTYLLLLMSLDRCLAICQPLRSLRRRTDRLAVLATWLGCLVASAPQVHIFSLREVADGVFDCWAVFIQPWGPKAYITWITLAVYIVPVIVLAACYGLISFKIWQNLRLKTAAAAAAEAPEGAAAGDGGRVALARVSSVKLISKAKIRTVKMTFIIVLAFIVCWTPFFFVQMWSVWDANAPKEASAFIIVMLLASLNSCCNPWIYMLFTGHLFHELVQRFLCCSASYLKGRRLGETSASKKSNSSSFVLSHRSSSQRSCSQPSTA
Assay: Oxytocin Receptor Beta-Lactamase Assay
Assay type: cell-based
Settings: oxytocin stimulation 4 hours, read-out: oxytocin antagonist activity, expressed as a Ki value
Procedure: A suitable assay for determining the oxytocin antagonist activity of a compound is detailed herein below.
Oxytocin Receptor Beta-Lactamase Assay
Cells used are CHO-OTR/NFAT-β-Lactamase. The NFAT-β-lactamase expression construct was transfected into the CHO-OTR cell line and clonal populations were isolated via fluorescence activated cell sorting (FACS). An appropriate clone was selected to develop the assay.
Recovery of cells—A vial of frozen cells is thawed rapidly in 37° C. water bath and the cell suspension transferred into a T225 flask with 50 ml of fresh growth medium and then incubated at 37° C., 5% CO2 in an incubator until the cells adhered to the flask Replace media with 50 ml of fresh growth media the following day.
Culturing cells—CHO—OTR—NFAT-βLactamase cells were grown in growth medium. Cells were harvested when they reached 80-90% confluence removing the medium and washing with pre-warmed PBS. PBS was then removed and Trypsin/EDTA added (3 mls for T225 cm^2 flask) before incubating for 5 min in 37° C./5% CO2 incubator. When cells were detached, pre-warmed growth media was added (7 mls for T225 cm^2 flask) and the cells re-suspended and mixed gently by pipetting to achieve single cell suspension. […]
Cells grown at 80-90% confluence were harvested and counted. […]
Preparation of 1 ml of 6× Loading Buffer with Enhanced Loading Protocol (this requires scale-up according to number of plates to be screened) • 12 μl of solution A (1 mM CCF4-AM in Dry DMSO) was added to 60 μl of solution B (100 mg/ml Pluronic-F127 in DMSO+0.1% Acetic Acid) and vortexed. • The resulting solution was added to 925 μl of solution C (24% w/w PEG400, 18% TR40 v/v in water). • 75 μl of solution D was added (200 mM probenecid in 200 mM NaOH). • 10 μl of 6× Loading Buffer was added to all wells and incubated for 1.5 hrs-2 hrs at room temperature in the dark. • The plates were read using an LJL Analyst, Excitation 405 nm, Emission 450 nm and 530 nm, gain optimal, lagtime 0.40 μs integration, 4 flashes, bottom reading.

Ki [nM]	SMILES
12.9	COc1ccc(-n2c(C)nnc2N2CCC3(CC2)COc2ccccc23)cn1 [Example 1, 1′-[4-(6-methoxypyridin-3-yl)-5-methyl-4H-1,2,4-triazol-3-yl]spiro[1-benzofuran-3,4′-piperidine]]
11.5	COCc1nnc(N2CCC3(CC2)OCc2cc(F)ccc23)n1-c1ccc(OC)nc1 [Example 6, 5-fluoro-1′-[5-(methoxymethyl)-4-(6-methoxypyridin-3-yl)-4H-1,2,4-triazol-3-yl]-3H-spiro[2-benzofuran-1,4′-piperidine]]
10.2	COCc1nnc(N2CCC3(CC2)OCc2ccccc23)n1-c1ccc(OC)nc1 [Example 17, 1′-[5-(methoxymethyl)-4-(6-methoxypyridin-3-yl)-4H-1,2,4-triazol-3-yl]-3H-spiro[2-benzofuran-1,4′-piperidine]]
